Results reported in patent publication US20130059375A1, “METHOD FOR PREPARING ES CELLS” (RIKEN, priority 2010, published 2013).

Tested on: inner cell mass (ICM) of NOD/SCID mouse
Assay: Inventors' earlier attempts to establish ES cells from NOD/SCID inner cell mass by known methods
Format: cell-based
Details: factor(s) in medium
Protocol: The present inventors have considered that this problem can be solved by establishing an ES cell from an NOD/SCID background mouse and introducing human gene thereinto to generate the human gene-introduced NOD/SCID background mouse. […] Furthermore, an FGF receptor inhibitor, an MEK activation inhibitor and a GSK3 inhibitor were added to the medium according to the method that established an ES cell from an NOD mouse (non-patent document 4).

ACTH: known peptide hormone consisting of 39 amino acids (SYSMEHFRWGKPVGKKRRPVKVYPNGAEDESAEAFPLEF; Corticotropin; UniProt P01189 138-176, looked up)
establishment of ES cell: could not establish
